What follows are molecules tested against FGFR2 (Homo sapiens, UniProt P21802) (assay: FGFR wild type enzyme assay (HTRF KinEASE-TK), FGFR2). Conditions: Enz FGFR2 (nM), FGFR2 wild type enzyme.
Sequence of FGFR2 (P21802 399-821 limits assumed): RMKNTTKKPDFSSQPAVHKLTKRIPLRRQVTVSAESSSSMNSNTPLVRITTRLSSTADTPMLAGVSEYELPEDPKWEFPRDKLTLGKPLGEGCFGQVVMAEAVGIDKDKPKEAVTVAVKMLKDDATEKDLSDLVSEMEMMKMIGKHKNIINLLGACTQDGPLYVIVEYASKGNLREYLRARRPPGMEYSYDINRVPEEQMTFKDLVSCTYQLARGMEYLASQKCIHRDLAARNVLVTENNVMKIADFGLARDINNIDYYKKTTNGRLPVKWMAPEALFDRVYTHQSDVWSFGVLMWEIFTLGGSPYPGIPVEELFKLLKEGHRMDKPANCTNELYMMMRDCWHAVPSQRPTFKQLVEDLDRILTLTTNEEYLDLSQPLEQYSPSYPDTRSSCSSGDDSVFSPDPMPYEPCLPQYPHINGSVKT

Row | IC50 [nM] | SMILES
1 | 2 | CC(=O)N1C2CCC1CC(n1ncc(-c3cc(Sc4ncccc4F)c4c(C#N)cnn4c3)c1C)C2 (stereo not drawn) [Example 204, 6-(1-(8-acetyl-8-azabicyclo[3.2.1]octan-3-yl)-5-methyl-1H-pyrazol-4-yl)-4-((3-fluoropyridin-2-yl)thio)pyrazolo[1,5-a]pyridine-3-carbonitrile]
2 | 3 | Cc1c(-c2cc(Sc3ncccc3F)c3c(C#N)cnn3c2)cnn1C[C@H]1CCCNC1 [Example 206, (S)-4-((3-fluoropyridin-2-yl)thio)-6-(5-methyl-1-(piperidin-3-ylmethyl)-1H-pyrazol-4-yl)pyrazolo[1,5-a]pyridine-3-carbonitrile]
3 | 5 | CC(=O)N1CCC[C@H](Cn2ncc(-c3cc(Sc4ncccc4F)c4c(C#N)cnn4c3)c2C)C1 [Example 207, (S)-6-(1-((1-acetylpiperidin-3-yl)methyl)-5-methyl-1H-pyrazol-4-yl)-4-((3-fluoropyridin-2-yl)thio)pyrazolo[1,5-a]pyridine-3-carbonitrile]
4 | 1 | CNC1CC2(C1)CC(n1ncc(-c3cc(Sc4ncccc4F)c4c(C#N)cnn4c3)c1C)C2 (stereo not drawn) [Example 211, 4-((3-fluoropyridin-2-yl)thio)-6-(5-methyl-1-(6-(methylamino)spiro[3.3]hep-tan-2-yl)-1H-pyrazol-4-yl)pyrazolo[1,5-a]pyridine-3-carbonitrile]
5 | 1.6 | Cc1c(-c2cc(Sc3ncccc3F)c3c(C#N)cnn3c2)cnn1C1CCN(C(=O)C(C)(C)N(C)C)CC1 [Example 213, 6-(1-(1-(2-(dimethylamino)-2-methylpropanoyl)piperidin-4-yl)-5-methyl-1H-pyrazol-4-yl)-4-((3-fluoropyridin-2-yl)thio)pyrazolo[1,5-a]pyridine-3-carbonitrile]
6 | 1 | CC(=O)N1CCC(Cn2ncc(-c3cc(Sc4ccccc4C#N)c4c(C#N)cnn4c3)c2C)CC1 [Example 221, 6-(1-((1-acetylpiperidin-4-yl)methyl)-5-methyl-1H-pyrazol-4-yl)-4-((2-cyanophenyl)thio)pyrazolo [1,5-a]pyridin-3-carbonitrile]
7 | 8 | Cc1c(-c2cc(Sc3ncccc3F)c3c(C#N)cnn3c2)cnn1[C@@H]1CCNC[C@H]1F [Example 223]
8 | 3.5 | Cc1c(-c2cc(Sc3ccccc3C#N)c3c(C#N)cnn3c2)cnn1C[C@@H]1CNCCO1 [Example 232, (S)-4-((2-cyanophenyl)thio)-6-(5-methyl-1-(morpholin-2-ylmethyl)-1H-pyrazol-4-yl)pyrazolo[1,5-a]pyridine-3-carbonitrile]
9 | 6 | Cc1c(-c2cc(Sc3ncccc3F)c3c(C#N)cnn3c2)cnn1C[C@@H]1CNCCO1 [Example 233, (S)-4-((3-fluoropyridin-2-yl)thio)-6-(5-methyl-1-(morpholin-2-ylmethyl)-1H-pyrazol-4-yl)pyrazolo[1,5-a]pyridine-3-carbonitrile]

Further lines, the molecule ahead of its results:

Row | SMILES | IC50 [nM]
10 | CC(=O)N1CCC(Cn2ncc(-c3cc(Sc4ncccc4F)c4c(C#N)cnn4c3)c2C)CC1 [Example 205, 6-(1-((1-acetylpiperidin-4-yl)methyl)-5-methyl-1H-pyrazol-4-yl)-4-((3-fluoropyridin-2-yl)thio)pyrazolo[1,5-a]pyridine-3-carbonitrile] | 3
11 | CN[C@H]1C[C@@H](n2ncc(-c3cc(Sc4ncccc4F)c4c(C#N)cnn4c3)c2C)C1 [Example 208, 4-((3-fluoropyridin-2-yl)thio)-6-(5-methyl-1-((1s,3s)-3-(methylamino)cyclobutyl)-1H-pyrazol-4-yl)pyrazolo[1,5-a]pyridine-3-carbonitrile] | 1
12 | Cc1c(-c2cc(Sc3ncccc3F)c3c(C#N)cnn3c2)cnn1C1CC2(CNC2)C1 [Example 209, 4-((3-fluoropyridin-2-yl)thio)-6-(5-methyl-1-(2-azaspiro[3.3]heptan-6-yl)-1H-pyrazol-4-yl)pyrazolo[1,5-a]pyridine-3-carbonitrile] | 1
13 | CC(=O)N1CC2(CC(n3ncc(-c4cc(Sc5ncccc5F)c5c(C#N)cnn5c4)c3C)C2)C1 [Example 210, 6-(1-(2-acetyl-2-azaspiro[3.3]heptan-6-yl)-5-methyl-1H-pyrazol-4-yl)-4-((3-fluoropyridin-2-yl)thio)pyrazolo[1,5-a]pyridine-3-carbonitrile] | 2
14 | Cc1c(-c2cc(Sc3ncccc3F)c3c(C#N)cnn3c2)cnn1C[C@H]1CC[C@@H](O)CC1 [Example 212, 4-((3-fluoropyridin-2-yl)thio)-6-(1-(((1s,4s)-4-hydroxycyclohexyl)methyl)-5-methyl-1H-pyrazol-4-yl)pyrazolo[1,5-a]pyridine-3-carbonitrile] | 3
15 | Cc1c(-c2cc(Sc3ncccc3F)c3c(C#N)cnn3c2)cnn1C1CCN(C(=O)[C@@H](C)N(C)C)CC1 [Example 214, 6-(1-(1-(dimethyl-D-alanyl)piperidin-4-yl)-5-methyl-1H-pyrazol-4-yl)-4-((3-fluoropyridin-2-yl)thio)pyrazolo[1,5-a]pyridine-3-carbonitrile] | 1.6
16 | Cc1c(-c2cc(Sc3ncccc3F)c3c(C#N)cnn3c2)cnn1C1CCN(C(=O)[C@H](C)N(C)C)CC1 [Example 215, 6-(1-(1-(dimethyl-L-alanyl)piperidin-4-yl)-5-methyl-1H-pyrazol-4-yl)-4-((3-fluoropyridin-2-yl)thio)pyrazolo[1,5-a]pyridine-3-carbonitrile] | 1.6
17 | Cc1c(-c2cc(Sc3ncccc3F)c3c(C#N)cnn3c2)cnn1C1CCN(Cc2ncccn2)CC1 [Example 216, 4-((3-fluoropyridin-2-yl)thio)-6-(5-methyl-1-(1-(pyrimidin-2-ylmethyl)piperidin-4-yl)-1H-pyrazol-4-yl)pyrazolo[1,5-a]pyridine-3-carbonitrile] | 2
18 | Cc1c(-c2cc(Sc3ncccc3F)c3c(C#N)cnn3c2)cnn1CC1CCN(CC(=O)N(C)C)CC1 [Example 217, 2-(4-((4-(3-cyano-4-((3-fluoropyridin-2-yl)thio)pyrazolo[1,5-a]pyridin-6-yl)-5-methyl-1H-pyrazol-1-yl)methyl)piperidin-1-yl)-N,N-dimethylacetamide] | 6
19 | Cc1c(-c2cc(Sc3ncccc3F)c3c(C#N)cnn3c2)cnn1[C@H](C)C1CCNCC1 [Example 218, (R)-4-((3-fluoropyridin-2-yl)thio)-6-(5-methyl-1-(1-(piperidin-4-yl)ethyl)-1H-pyrazol-4-yl)pyrazolo[1,5-a]pyridine-3-carbonitrile] | 3
20 | Cc1c(-c2cc(Sc3ncccc3F)c3c(C#N)cnn3c2)cnn1[C@H]1CC[C@]2(CCNC2)CC1 [Example 219, 4-((3-fluoropyridin-2-yl)thio)-6-(5-methyl-1-((5s,8s)-2-azaspiro[3.4]decan-8-yl)-1H-pyrazol-4-yl)pyrazolo[1,5-a]pyridine-3-carbonitrile] | 0.5
21 | CC(=O)N[C@H]1CC[C@@H](n2ncc(-c3cc(Sc4ncccc4F)c4c(C#N)cnn4c3)c2C)CC1 [Example 220, N-((1s,4S)-4-(4-(3-cyano-4-((3-fluoropyridin-2-yl)thio)pyrazolo[1,5-a]pyridin-6-yl)-5-methyl-1H-pyrazol-1-yl)cyclohexyl)acetamide] | 5
22 | Cc1c(-c2cc(Sc3ncccc3F)c3c(C#N)cnn3c2)cnn1CC1CCNCC1 [Example 222, 4-((3-fluoropyridin-2-yl)thio)-6-(5-methyl-1-(piperidin-4-ylmethyl)-1H-pyrazol-4-yl)pyrazolo[1,5-a]pyridine-3-carbonitrile] | 5
23 | CC(=O)N1CCC[C@@H](Cn2ncc(-c3cc(Sc4ccccc4C#N)c4c(C#N)cnn4c3)c2C)C1 [Example 224, (R)-6-(1-((1-acetylpiperidin-3-yl)methyl)-5-methyl-1H-pyrazol-4-yl)-4-((2-cyanophenyl)thio)pyrazolo [1,5-a]pyridine-3-carbonitrile] | 8
24 | CC(=O)N1CC[C@]2(CC[C@@H](n3ncc(-c4cc(Sc5ncccc5F)c5c(C#N)cnn5c4)c3C)CC2)C1 [Example 225, 6-(1-((5r,8r)-2-acetyl-2-azaspiro[4.5]decan-8-yl)-5-methyl-1H-pyrazol-4-y)-4-((3-fluoropyridin-2-yl)thio)pyrazolo[1,5-a]pyridine-3-carbonitrile] | 1
25 | Cc1c(-c2cc(Sc3ncccc3F)c3c(C#N)cnn3c2)cnn1[C@@H]1C[C@H]2CNC[C@H]2C1 [Example 226, 4-((3-fluoropyridin-2-yl)thio)-6-(5-methyl-1-((3sR,5s,6aS)-octahydrocyclopenta[c]pyr-rol-5-yl)-1H-pyrazol-4-yl)pyrazolo[1,5-a]pyridine-3-carbonitrile] | 1
26 | CC(=O)N1CC[C@]2(CC[C@H](n3ncc(-c4cc(Sc5ncccc5F)c5c(C#N)cnn5c4)c3C)CC2)C1 [Example 227, 6-(1-((5s,8s)-2-acetyl-2-azaspiro[4.5]decan-8-yl)-5-methyl-1H-pyrazol-4-yl)-4-((3-fluoropyridin-2-yl)thio)pyrazolo[1,5-a]pyridine-3-carbonitrile] | 1
27 | Cc1c(-c2cc(Sc3ncccc3F)c3c(C#N)cnn3c2)cnn1[C@H]1CC[C@@H](NC(=O)CO)CC1 [Example 228, N-((1s,4s)-4-(4-(3-cyano-4-((3-fluoropyridin-2-yl)thio)pyrazolo[1,5-a]pyridin-6-yl)-5-methyl-1H-pyrazol-1-yl)cyclohexyl)-2-hydroxyacetamide] | 1
28 | Cc1c(-c2cc(Sc3ncc(F)cc3F)c3c(C#N)cnn3c2)cnn1[C@H]1CCCN(C(=O)CO)C1 [Example 229, (S)-4-((3,5-difluoropyridin-2-yl)thio)-6-(1-(1-(2-hydroxyacetyl)piperidin-3-yl)-5-methyl-1H-pyrazol-4-yl)pyrazolo[1,5-a]pyridine-3-carbonitrile] | 3
29 | Cc1c(-c2cc(Sc3ccc(F)cc3C#N)c3c(C#N)cnn3c2)cnn1C1CCN(C)CC1 [Example 230, 4-((2-cyano-4-fluorophenyl)thio)-6-(5-methyl-1-(1-methylpiperidin-4-yl)-1H-pyrazol-4-yl)pyrazolo[1,5-a]pyridine-3-carbonitrile] | 1
30 | CC(=O)N(C)[C@H]1CC[C@@H](n2ncc(-c3cc(Sc4ccccc4C#N)c4c(C#N)cnn4c3)c2C)CC1 [Example 231, N-((1s,4s)-4-(4-(3-cyano-4-((2-cyanophenyl)thio)pyrazolo [1,5-a]pyridin-6-yl)-5-methyl-1H-pyrazol-1-yl)cyclohexyl)-N-methylacetamide] | 1
